Earlier results, collected in patent publication US20030162721A1, “PHARMACEUTICAL COMPOSITION CONTAINING PEPTICHEMIO” (priority 1997, published 2003).

Tested on: RPMI 8322 melanoma cells

L-prolyl-m-sarcolysyl-L-p-fluorophenylalanine [PSF]
times more toxic than m-sarcolysine (relative to m-sarcolysine): 28 times
times more toxic than melphalan (relative to melphalan): 35 times
